The test system of test [1] is phosphorylation of Cdc2 Y15 (Wee1 substrate) in A427 cells. Put plainly: Phosphorylated Cdc2 MSD Electrochemiluminescence Assay. It is filed as cell-based. The conditions noted are these: Homo sapiens, A-427, pCDC2 MSD. As to the method: Phosphorylated Cdc2 MSD Electrochemiluminescence Assay
The effect of Wee1 inhibitors on cellular phosphorylation of the Wee1 substrate Cdc2 was determined using the following protocol:
A total of 40,000 A427 cells in 100 uL culture medium (1640 medium+10% Fetal bovine serum+1% Penicillin-Streptomycin) were plated in 96-well cell culture plates. 3-fold serial dilutions of test compounds were prepared in completed PBS at 25× final concentration. After 20 hours, the plates were removed and 4 μL of each were added to the cells and incubated with shaking for 30 minutes at 37° C., 5% CO2. Each concentration was tested in duplicate. After a total 6 hours incubation, plates were removed and centrifuged for 5 minutes and 100 uL of supernatant from each well was removed. Cells were washed with 200 μL PBS and lysed with 50 μL MSD lysis buffer (Meso Scale Diagnostics) supplied with 1× complete ULTRA cocktail inhibitor (Roche).
To detect phosphorylation of Cdc2 Y15, 30 μL of capture antibody solution (CST catalog #9116S 1:200) was added into each well of the MSD plate (MSD catalog #L15XB-6), sealed and incubated at 4° C. with shaking (450 rpm) overnight. The antibody solution was removed, wells blocked with BSA solution and plates washed three times with PBST, followed by addition of 30 μl of cell lysate per well. After 2 hours of incubation, plates were washed three times with PBST. 30 μL of 1× detection antibody solution (CST catalog #4539S 1:200) was then added to each well and incubated for 1 hour. Plates were washed three times with PBST and 30 μL of 1× secondary antibody solution (MSD, catalog #:R32AB-1, 1:5000) was added to each well and incubated for 1 hour. Plates were washed three times with PBST and 150 μL of 1× Read Buffer T (MSD, catalog #R92TC-1) was added to each well of the MSD plate. The electrochemiluminescence signal was measured on a MESO SECTOR S600 plate reader. The percentage of remaining phosphorylated Cdc2 signal was calculated following the equation below.
[formula] • HC (high control): Cells treated with DMSO • Cpds: Cells treated with test compounds • LC (low control): Cells treated with positive control Wee1 inhibitor

In another test the target is T1, Wee1 kinase domain (Homo sapiens, UniProt P30291).
T1 construct: Wee1 kinase domain was purchased from Carna (catalog #05-177); purchased Carna 05-177
T1 sequence (P30291 299-569 limits assumed): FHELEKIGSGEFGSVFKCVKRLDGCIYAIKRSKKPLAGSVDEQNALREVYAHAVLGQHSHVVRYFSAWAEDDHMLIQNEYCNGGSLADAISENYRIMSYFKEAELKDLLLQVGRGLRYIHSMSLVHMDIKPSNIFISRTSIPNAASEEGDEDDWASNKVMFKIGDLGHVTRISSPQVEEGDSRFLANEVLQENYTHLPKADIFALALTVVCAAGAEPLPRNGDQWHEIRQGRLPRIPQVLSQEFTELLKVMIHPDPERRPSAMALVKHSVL
Put plainly: Wee1 Kinase Biochemical Assay (ADP-Glo). The conditions noted are these: Wee1 kinase domain, 15 uM ATP, ADP-Glo. Summed up: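 ADP-Glo detection of ADP produced after 4 h at 25° C by 1 nM Wee1 kinase domain on 2 ng/mL poly(Lys,Tyr 4:1) with 15 uM ATP. Buffer: 40 mM Tris-HCl, 20 mM MgCl2, 0.1 mg/mL BSA, 2 mM DTT. Inhibition is relative to DMSO (high) and saturating Wee1 inhibitor (low) controls.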
A general note: ADP-Glo first removes unused ATP, then detects ADP through luciferase.

SMILES strings stand for the structures. Where only a bound is given, the exact number is not on record here.

Drawing on US20260166039A1 (SCHRÖDINGER, INC., priority 2022, published 2026), this text covers IC50 for 28 compounds.

As a reminder, the IC50 is the midpoint of a concentration-inhibition curve. Take `CC1(C)C[C@H]2N(c3cccc(N=S(C)(C)=O)n3)c3nc(Nc4ccc([C@H]5CCNC5)cc4)ncc3[C@@]2(C)CO1` (single isomer, unassigned) [Example 137]: the values for the IC50 (in test [1]; on Wee1 kinase domain) were less than 100 nM and less than 10 nM, respectively.

In the case of `CN1CCC(c2ccc(Nc3ncc4c(n3)N(c3cccc(N=S(C)(C)=O)n3)[C@@H]3CC(C)(C)OC[C@]43C)cn2)CC1` (single isomer, unassigned) [Example 140], the IC50 in test [1] is less than 100 nM; against Wee1 kinase domain, less than 10 nM.

For `CN(C)C(=O)c1ccc(Nc2ncc3c(n2)N(c2cccc(N=S(C)(C)=O)n2)[C@@H]2CC(C)(C)OC[C@]32C)cc1` (single isomer, unassigned) [Example 141], the concentration for half-maximal inhibition (IC50) in test [1] was less than 100 nM; against Wee1 kinase domain, less than 10 nM.

For `Cc1cc(Nc2ncc3c(n2)N(c2cccc(N=S(C)(C)=O)n2)[C@@H]2CC(C)(C)OC[C@]32C)ccc1[C@@H]1CCNC1` (single isomer, unassigned) [Example 143], the IC50 in test [1] is 100 to 1000 nM; at Wee1 kinase domain it was less than 10 nM.

As to `Cc1cc(Nc2ncc3c(n2)N(c2cccc(N=S(C)(C)=O)n2)[C@@H]2CC(C)(C)OC[C@]32C)ccc1[C@@H]1CCN(C)C1` (single isomer, unassigned) [Example 145], the values for the IC50 (in test [1]; against Wee1 kinase domain) were less than 100 nM and less than 10 nM, respectively.

Turning to `Cc1cc(Nc2ncc3c(n2)N(c2cccc(N=S(C)(C)=O)n2)[C@@H]2CC(C)(C)OC[C@]32C)ccc1[C@H]1CCN(C)C1` (single isomer, unassigned) [Example 147], the IC50 in test [1] was less than 100 nM; at Wee1 kinase domain, less than 10 nM.

Turning to `Cc1cc(Nc2ncc3c(n2)N(c2cccc(N=S(C)(C)=O)n2)[C@@H]2CC(C)(C)OC[C@]32C)ccc1[C@H]1CCNC1` (single isomer, unassigned) [Example 149], the results for the half-maximal inhibitory concentration (IC50) (in test [1]; on Wee1 kinase domain) were 100 to 1000 nM and less than 10 nM, respectively.

`CC1(C)C[C@H]2N(c3cccc(N=S(C)(C)=O)n3)c3nc(Nc4ccc(O[C@H]5CCNC5)cc4)ncc3[C@@]2(C)CO1` (single isomer, unassigned) [Example 153]: the IC50 is less than 100 nM in test [1] and less than 10 nM against Wee1 kinase domain.

With `CC1(C)C[C@H]2N(c3cccc(N=S(C)(C)=O)n3)c3nc(Nc4ccc(O[C@@H]5CCNC5)cc4)ncc3[C@@]2(C)CO1` (single isomer, unassigned) [Example 155], the 50% inhibitory concentration (IC50) in test [1] is 100 to 1000 nM; against Wee1 kinase domain, less than 10 nM.

As to `CN1CC[C@H](Oc2ccc(Nc3ncc4c(n3)N(c3cccc(N=S(C)(C)=O)n3)[C@@H]3CC(C)(C)OC[C@]43C)cc2)C1` (single isomer, unassigned) [Example 157], the values for the IC50 (in test [1]; against Wee1 kinase domain) were less than 100 nM and less than 10 nM, respectively.

`CN1CC[C@@H](Oc2ccc(Nc3ncc4c(n3)N(c3cccc(N=S(C)(C)=O)n3)[C@@H]3CC(C)(C)OC[C@]43C)cc2)C1` (single isomer, unassigned) [Example 159]: the IC50 in test [1] was less than 100 nM; against Wee1 kinase domain, less than 10 nM.

Consider `[2H]C([2H])([2H])N1CCC(c2ccc(Nc3ncc4c(n3)N(c3cccc(N=S(C)(C)=O)n3)[C@@H]3CC(C)(C)OC[C@]43C)cc2)CC1` (single isomer, unassigned) [Example 162], for which the IC50 in test [1] was less than 100 nM; against Wee1 kinase domain, less than 10 nM.

As to `CC1(C)C[C@H]2N(c3cccc(N=S(C)(C)=O)n3)c3nc(Nc4ccc(C5CNC5)cc4)ncc3[C@@]2(C)CO1` (single isomer, unassigned) [Example 163], the 50% inhibitory concentration (IC50) is less than 100 nM in test [1] and less than 10 nM against Wee1 kinase domain.

In the case of `CN1CC(c2ccc(Nc3ncc4c(n3)N(c3cccc(N=S(C)(C)=O)n3)[C@@H]3CC(C)(C)OC[C@]43C)cc2)C1` (single isomer, unassigned) [Example 165], the IC50 was less than 100 nM in test [1] and less than 10 nM on Wee1 kinase domain.

`CN1CC[C@](C)(c2ccc(Nc3ncc4c(n3)N(c3cccc(N=S(C)(C)=O)n3)[C@@H]3CC(C)(C)OC[C@]43C)cc2)C1` (single isomer, unassigned) [Example 168]: the IC50 in test [1] was less than 100 nM; at Wee1 kinase domain, less than 10 nM.

For `CN1CC[C@@](C)(c2ccc(Nc3ncc4c(n3)N(c3cccc(N=S(C)(C)=O)n3)[C@@H]3CC(C)(C)OC[C@]43C)cc2)C1` (single isomer, unassigned) [Example 169], the IC50 is less than 100 nM in test [1] and less than 10 nM on Wee1 kinase domain.

Turning to `CC1(C)C[C@H]2N(c3cccc(N=S(C)(C)=O)n3)c3nc(Nc4ccc([C@]5(C)CCNC5)cc4)ncc3[C@@]2(C)CO1` (single isomer, unassigned) [Example 171], the IC50 in test [1] was 100 to 1000 nM; against Wee1 kinase domain it was less than 10 nM.

As to `CC1(C)C[C@@H]2N(c3cccc(N=S(C)(C)=O)n3)c3nc(Nc4ccc([C@]5(C)CCNC5)cc4)ncc3[C@]2(C)CO1` (single isomer, unassigned) [Example 173], the 50% inhibitory concentration (IC50) in test [1] is less than 100 nM; against Wee1 kinase domain, less than 10 nM.

`CN1C[C@H]2C[C@@H]1CN2c1ccc(Nc2ncc3c(n2)N(c2cccc(N=S(C)(C)=O)n2)[C@@H]2CC(C)(C)OC[C@]32C)cc1F` (single isomer, unassigned) [Example 176]: the IC50 in test [1] was 100 to 1000 nM; against Wee1 kinase domain, less than 10 nM.

Consider `CN1CCC(c2ccc(Nc3ncc4c(n3)N(c3cccc(N=S(C)(C)=O)n3)[C@@H]3CC(C)(C)OC[C@]43C)cc2F)CC1` (single isomer, unassigned) [Example 177], for which the values for the IC50 (in test [1]; against Wee1 kinase domain) were 100 to 1000 nM and less than 10 nM, respectively.

For `CN1C[C@@H]2C[C@H]1CN2c1ccc(Nc2ncc3c(n2)N(c2cccc(N=S(C)(C)=O)n2)[C@@H]2CC(C)(C)OC[C@]32C)cc1F` (single isomer, unassigned) [Example 180], the IC50 was 100 to 1000 nM in test [1] and less than 10 nM at Wee1 kinase domain.

Regarding `CN1CC(c2ccc(Nc3ncc4c(n3)N(c3cccc(N=S(C)(C)=O)n3)[C@@H]3CC(C)(C)OC[C@]43C)cc2Cl)C1` (single isomer, unassigned) [Example 181], the IC50 was less than 100 nM in test [1] and less than 10 nM against Wee1 kinase domain.

Turning to `CC1(C)C[C@H]2N(c3cccc(N=S(C)(C)=O)n3)c3nc(Nc4ccc(C5CNC5)c(F)c4)ncc3[C@@]2(C)CO1` (single isomer, unassigned) [Example 183], the IC50 in test [1] is 100 to 1000 nM; against Wee1 kinase domain, less than 10 nM.

As to `CN1CC(c2ccc(Nc3ncc4c(n3)N(c3cccc(N=S(C)(C)=O)n3)[C@@H]3CC(C)(C)OC[C@]43C)cc2F)C1` (single isomer, unassigned) [Example 184], the half-maximal inhibitory concentration (IC50) in test [1] is less than 100 nM; against Wee1 kinase domain it was less than 10 nM.

Take `CN1Cc2cc(Nc3ncc4c(n3)N(c3cccc(N=S(C)(C)=O)n3)[C@@H]3CC(C)(C)OC[C@]43C)cnc2C1` (single isomer, unassigned) [Example 188]: the values for the IC50 (in test [1]; at Wee1 kinase domain) were less than 100 nM and less than 10 nM, respectively.

For the compound `CC1(C)C[C@H]2N(c3cccc(N=S(C)(C)=O)n3)c3nc(Nc4ccc(C5CNC5)nc4)ncc3[C@@]2(C)CO1` (single isomer, unassigned) [Example 190], the 50% inhibitory concentration (IC50) is 100 to 1000 nM in test [1] and less than 10 nM against Wee1 kinase domain.

Regarding `CN1CC(c2ccc(Nc3ncc4c(n3)N(c3cccc(N=S(C)(C)=O)n3)[C@@H]3CC(C)(C)OC[C@]43C)cn2)C1` (single isomer, unassigned) [Example 192], the half-inhibitory concentration (IC50) in test [1] is 100 to 1000 nM; against Wee1 kinase domain, less than 10 nM.

On to `CC1(C)C[C@H]2N(c3cccc(N=S(C)(C)=O)n3)c3nc(Nc4cnn(C5CCOCC5)c4)ncc3[C@@]2(C)CO1` (single isomer, unassigned) [Example 194], for which the IC50 in test [1] was 100 to 1000 nM; at Wee1 kinase domain it was less than 10 nM.
